Measured values published in patent publication US20120225862A1, “HETEROARYL BENZAMIDES, COMPOSITIONS AND METHODS OF USE” (AUCKLAND UNIVSERVICES LIMITED, priority 2009, published 2012).

Key:
MEK1 = biological target: T1, MEK1 (Homo sapiens, UniProt Q02750); test: In vitro kinase activity (Millipore KinaseProfiler): MEK1; format: biochemical; conditions: no head or unit printed
T1 construct: purchased Millipore (KinaseProfiler service)
Procedure: (§1) All cells were grown in DMEM+10% FCS. ACHN and ACHN shVHL were a kind gift from George V. Thomas (UCLA). HIF overexpressing clones were described previously. Transfection of RNA oligos were performed with DnarmaFECT Reagent 1 (Dharmcon), according to manufacturer's directions. ON-TARGETplus SMART pools against HIF-1β/ARNT were purchased from Dharmacon. Glut1 was detected with anti-GLUT1 antibody from NeoMarkers/LabVision/Fisher. Pyruvate/lactate levels and hexokinase activity were both measured by fluorometric assay (BioVision and Sigma-Aldrich, respectively). ATP levels were measured by bioluminescence assay (ATP Determination Kit from Molecular Probes/Invitrogen). In vitro kinase activities were performed by Millipore KinaseProfiler. Affi-Gel 10 (BioRad) activated affinity media was coupled to analogs to generate immobilized affinity linkers.
(§2) We next wanted to investigate the differential glucose uptake between RCCs with and without VHL treated with compound 47 that subsequently lead to the selective death of VHL-deficient cells. We first examined the message levels of the two main glucose transporters, GLUT1 and GLUT2 by quantitative real-time PCR. GLUT1 is an inducible, high-affinity glucose transporter, while GLUT2 is the glucose transporter responsible for basal glucose uptake. […] Cells deficient in VHL had very low levels of GLUT2 that could barely be detected (FIG. 3J). […]

MSK1 = biological target: T2, MSK1 (Homo sapiens, UniProt O75582); test: In vitro kinase activity (Millipore KinaseProfiler): MSK1; format: biochemical; conditions: no head or unit printed
T2 construct: purchased Millipore (KinaseProfiler service)
Procedure: as §1, §2

50 different kinases = test: In vitro kinase panel (Millipore KinaseProfiler), summary; format: biochemical
Procedure: as §1, §2

hexokinase = test: Hexokinase activity in whole cell lysates, RCC4/VHL; format: cell-based, human; conditions: 5 μM
Procedure: as §1
We then examined whether this decrease in glycolysis in response to compound 47 was due to a decrease in glucose uptake or whether compound 47 inhibited a particular glycolytic enzyme. To test this, we measured glucose uptake using 2-deoxy-D-[^3H] glucose, a non-hydrolyzable, radioactive glucose analog, following two days of treatment with compound 47. […] RCC4/VHL cells had lower baseline levels of glucose uptake compared to RCC4 cells and were unaffected by treatment with compound 47. […]

TrkA = biological target: T3, TrkA (Homo sapiens, UniProt P04629); test: In vitro kinase activity (Millipore KinaseProfiler): TrkA; format: biochemical; conditions: no head or unit printed
T3 construct: purchased Millipore (KinaseProfiler service)
Procedure: as §1, §2

SAPK2a = biological target: T4, SAPK2a (Homo sapiens, UniProt Q16539); test: In vitro kinase activity (Millipore KinaseProfiler): SAPK2a; format: biochemical; conditions: no head or unit printed
T4 construct: purchased Millipore (KinaseProfiler service)
Procedure: as §1, §2

mTOR = biological target: T5, mTOR (Homo sapiens, UniProt P42345); test: In vitro kinase activity (Millipore KinaseProfiler): mTOR; format: biochemical; conditions: no head or unit printed
T5 construct: purchased Millipore (KinaseProfiler service)
Procedure: as §1, §2

IRAK1 = biological target: T6, IRAK1 (Homo sapiens, UniProt P51617); test: In vitro kinase activity (Millipore KinaseProfiler): IRAK1; format: biochemical; conditions: no head or unit printed
T6 construct: purchased Millipore (KinaseProfiler service)
Procedure: as §1, §2

IR = biological target: T7, IR (Homo sapiens, UniProt P06213); test: In vitro kinase activity (Millipore KinaseProfiler): IR; format: biochemical; conditions: no head or unit printed
T7 construct: purchased Millipore (KinaseProfiler service)
Procedure: as §1, §2

IKKα = biological target: T8, IKKα (Homo sapiens, UniProt O15111); test: In vitro kinase activity (Millipore KinaseProfiler): IKKα; format: biochemical; conditions: no head or unit printed
T8 construct: purchased Millipore (KinaseProfiler service)
Procedure: as §1, §2

EphA1 = biological target: T9, EphA1 (Homo sapiens, UniProt P21709); test: In vitro kinase activity (Millipore KinaseProfiler): EphA1; format: biochemical; conditions: no head or unit printed
T9 construct: purchased Millipore (KinaseProfiler service)
Procedure: as §1, §2

GSK3α = biological target: T10, GSK3α (Homo sapiens, UniProt P49840); test: In vitro kinase activity (Millipore KinaseProfiler): GSK3α; format: biochemical; conditions: no head or unit printed
T10 construct: purchased Millipore (KinaseProfiler service)
Procedure: as §1, §2

RCC4 = test: XTT IC50 / viability assay, RCC4 cells; format: cell-based, human
Outline: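 RCC4 parental and VHL-reintroduced RCC4/VHL cells (DMEM, 10% FCS) treated with serially diluted drug for four days. Viability by XTT (0.3 mg/mL) with N-methyl dibenzopyrazine methyl sulfate, 1–2 h at 37 °C, absorbance 450 nm; IC50 by linear interpolation.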

DYRK2 = biological target: T11, DYRK2 (Homo sapiens, UniProt Q92630); test: In vitro kinase activity (Millipore KinaseProfiler): DYRK2; format: biochemical; conditions: no head or unit printed
T11 construct: purchased Millipore (KinaseProfiler service)
Procedure: as §1, §2

T8 sequence (O15111 whole entry, species assumed): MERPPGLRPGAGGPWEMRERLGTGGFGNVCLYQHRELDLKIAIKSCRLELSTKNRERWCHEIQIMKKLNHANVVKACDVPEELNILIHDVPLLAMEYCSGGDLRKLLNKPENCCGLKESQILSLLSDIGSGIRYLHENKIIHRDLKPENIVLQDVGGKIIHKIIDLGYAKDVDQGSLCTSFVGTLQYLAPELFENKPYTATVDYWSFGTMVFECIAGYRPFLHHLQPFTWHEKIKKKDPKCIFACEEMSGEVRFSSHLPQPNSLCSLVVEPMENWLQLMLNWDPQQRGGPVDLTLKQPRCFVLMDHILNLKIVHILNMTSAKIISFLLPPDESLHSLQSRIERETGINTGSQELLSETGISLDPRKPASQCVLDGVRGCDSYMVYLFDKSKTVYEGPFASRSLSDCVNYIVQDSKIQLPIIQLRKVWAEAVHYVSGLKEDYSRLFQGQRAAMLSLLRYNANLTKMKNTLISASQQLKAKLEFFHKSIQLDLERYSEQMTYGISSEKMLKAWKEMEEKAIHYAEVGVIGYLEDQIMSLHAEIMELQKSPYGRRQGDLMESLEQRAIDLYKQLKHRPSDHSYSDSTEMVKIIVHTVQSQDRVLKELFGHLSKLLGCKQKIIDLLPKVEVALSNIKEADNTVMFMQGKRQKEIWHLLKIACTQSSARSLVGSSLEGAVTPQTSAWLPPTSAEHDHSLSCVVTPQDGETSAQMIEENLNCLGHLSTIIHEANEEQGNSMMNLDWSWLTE
T4 sequence (Q16539 whole entry): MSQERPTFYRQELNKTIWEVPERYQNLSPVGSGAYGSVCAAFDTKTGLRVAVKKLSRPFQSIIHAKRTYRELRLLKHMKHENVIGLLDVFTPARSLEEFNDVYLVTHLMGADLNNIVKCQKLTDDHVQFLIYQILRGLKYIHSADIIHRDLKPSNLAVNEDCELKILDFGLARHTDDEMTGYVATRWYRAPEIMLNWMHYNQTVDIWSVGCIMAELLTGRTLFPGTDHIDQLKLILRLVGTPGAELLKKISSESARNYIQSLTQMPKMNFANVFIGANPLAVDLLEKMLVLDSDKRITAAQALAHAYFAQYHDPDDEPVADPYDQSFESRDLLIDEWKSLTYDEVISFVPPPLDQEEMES
T10 sequence (P49840 whole entry, species assumed): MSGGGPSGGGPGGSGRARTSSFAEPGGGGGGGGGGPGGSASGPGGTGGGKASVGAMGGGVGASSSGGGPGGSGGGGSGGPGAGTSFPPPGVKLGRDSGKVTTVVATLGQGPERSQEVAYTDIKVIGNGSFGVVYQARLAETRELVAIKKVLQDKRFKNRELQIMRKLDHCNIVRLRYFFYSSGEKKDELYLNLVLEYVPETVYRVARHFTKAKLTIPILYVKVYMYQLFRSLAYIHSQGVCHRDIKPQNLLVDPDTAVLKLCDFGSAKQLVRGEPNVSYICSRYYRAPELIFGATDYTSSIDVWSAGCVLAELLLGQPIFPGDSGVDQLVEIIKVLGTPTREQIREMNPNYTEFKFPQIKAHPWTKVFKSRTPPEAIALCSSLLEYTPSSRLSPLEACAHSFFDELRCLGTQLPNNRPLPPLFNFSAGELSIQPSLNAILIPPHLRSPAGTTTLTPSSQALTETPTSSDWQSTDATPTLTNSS
T2 sequence (O75582 whole entry, species assumed): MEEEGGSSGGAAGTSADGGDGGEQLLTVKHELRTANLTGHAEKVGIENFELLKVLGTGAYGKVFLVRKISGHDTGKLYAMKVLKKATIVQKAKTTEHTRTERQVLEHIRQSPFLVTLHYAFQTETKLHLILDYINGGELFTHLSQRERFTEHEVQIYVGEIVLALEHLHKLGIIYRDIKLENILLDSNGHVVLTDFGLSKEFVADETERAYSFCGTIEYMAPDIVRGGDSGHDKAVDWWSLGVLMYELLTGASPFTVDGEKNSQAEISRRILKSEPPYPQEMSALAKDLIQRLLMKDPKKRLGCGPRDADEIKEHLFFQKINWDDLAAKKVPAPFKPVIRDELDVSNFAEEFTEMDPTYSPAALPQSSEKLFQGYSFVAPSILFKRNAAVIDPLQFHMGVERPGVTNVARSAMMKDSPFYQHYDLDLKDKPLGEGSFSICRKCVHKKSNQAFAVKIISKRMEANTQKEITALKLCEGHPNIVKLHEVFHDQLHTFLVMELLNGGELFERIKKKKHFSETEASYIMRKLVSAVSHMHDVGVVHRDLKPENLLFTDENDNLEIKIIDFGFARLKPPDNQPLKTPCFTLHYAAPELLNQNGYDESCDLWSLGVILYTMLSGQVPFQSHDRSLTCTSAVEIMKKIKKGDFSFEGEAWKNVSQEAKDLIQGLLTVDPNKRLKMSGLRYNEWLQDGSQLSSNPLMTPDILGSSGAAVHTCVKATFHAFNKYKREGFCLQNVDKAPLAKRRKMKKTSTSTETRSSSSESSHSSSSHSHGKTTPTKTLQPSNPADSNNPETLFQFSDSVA
T3 sequence (P04629 33-796): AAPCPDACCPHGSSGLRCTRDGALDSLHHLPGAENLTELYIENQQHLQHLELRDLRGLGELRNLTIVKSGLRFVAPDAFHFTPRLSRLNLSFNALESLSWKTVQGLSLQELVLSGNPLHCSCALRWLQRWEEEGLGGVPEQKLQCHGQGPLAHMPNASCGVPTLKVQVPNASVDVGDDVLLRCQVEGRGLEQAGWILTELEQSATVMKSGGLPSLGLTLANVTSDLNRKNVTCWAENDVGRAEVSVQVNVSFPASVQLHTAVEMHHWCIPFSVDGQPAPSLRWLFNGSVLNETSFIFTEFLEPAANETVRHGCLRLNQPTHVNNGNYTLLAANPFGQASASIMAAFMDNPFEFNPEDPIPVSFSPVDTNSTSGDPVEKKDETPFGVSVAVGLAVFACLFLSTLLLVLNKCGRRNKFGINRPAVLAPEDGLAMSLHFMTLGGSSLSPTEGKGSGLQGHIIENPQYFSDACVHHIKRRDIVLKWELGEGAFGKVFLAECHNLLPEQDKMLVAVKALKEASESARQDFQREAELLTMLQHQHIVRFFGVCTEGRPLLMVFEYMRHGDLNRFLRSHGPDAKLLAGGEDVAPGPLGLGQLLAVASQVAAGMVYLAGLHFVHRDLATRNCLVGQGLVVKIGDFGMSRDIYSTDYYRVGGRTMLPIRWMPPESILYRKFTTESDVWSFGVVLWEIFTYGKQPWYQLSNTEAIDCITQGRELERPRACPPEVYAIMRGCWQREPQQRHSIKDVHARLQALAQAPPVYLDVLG
T1 sequence (Q02750 whole entry, species assumed): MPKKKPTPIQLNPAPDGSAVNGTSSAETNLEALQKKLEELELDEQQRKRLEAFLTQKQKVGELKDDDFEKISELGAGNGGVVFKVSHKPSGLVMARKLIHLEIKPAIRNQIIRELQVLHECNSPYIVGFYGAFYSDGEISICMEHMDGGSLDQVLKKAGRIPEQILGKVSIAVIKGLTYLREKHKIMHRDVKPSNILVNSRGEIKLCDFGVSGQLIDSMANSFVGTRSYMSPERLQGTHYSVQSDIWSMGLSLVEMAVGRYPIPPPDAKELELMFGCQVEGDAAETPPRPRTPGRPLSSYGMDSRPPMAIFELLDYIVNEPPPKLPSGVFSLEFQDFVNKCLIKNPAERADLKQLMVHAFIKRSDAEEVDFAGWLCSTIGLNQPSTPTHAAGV
T11 sequence (Q92630 whole entry, species assumed): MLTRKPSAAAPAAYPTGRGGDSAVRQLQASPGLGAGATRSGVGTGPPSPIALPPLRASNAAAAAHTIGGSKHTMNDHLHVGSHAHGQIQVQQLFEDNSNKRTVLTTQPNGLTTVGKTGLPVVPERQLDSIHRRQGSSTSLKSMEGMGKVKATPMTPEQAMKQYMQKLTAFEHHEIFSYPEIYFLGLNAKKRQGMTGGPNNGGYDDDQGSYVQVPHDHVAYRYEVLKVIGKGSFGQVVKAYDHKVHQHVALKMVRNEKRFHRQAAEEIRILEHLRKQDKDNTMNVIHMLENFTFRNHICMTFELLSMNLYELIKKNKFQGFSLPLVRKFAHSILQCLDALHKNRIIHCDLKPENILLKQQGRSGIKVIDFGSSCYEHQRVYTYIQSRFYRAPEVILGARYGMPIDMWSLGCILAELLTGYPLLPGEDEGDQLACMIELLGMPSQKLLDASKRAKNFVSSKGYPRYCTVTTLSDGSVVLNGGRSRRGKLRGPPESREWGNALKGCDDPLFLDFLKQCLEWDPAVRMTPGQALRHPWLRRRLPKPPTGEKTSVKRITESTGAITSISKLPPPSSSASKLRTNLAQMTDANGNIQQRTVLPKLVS
T6 sequence (P51617 whole entry, species assumed): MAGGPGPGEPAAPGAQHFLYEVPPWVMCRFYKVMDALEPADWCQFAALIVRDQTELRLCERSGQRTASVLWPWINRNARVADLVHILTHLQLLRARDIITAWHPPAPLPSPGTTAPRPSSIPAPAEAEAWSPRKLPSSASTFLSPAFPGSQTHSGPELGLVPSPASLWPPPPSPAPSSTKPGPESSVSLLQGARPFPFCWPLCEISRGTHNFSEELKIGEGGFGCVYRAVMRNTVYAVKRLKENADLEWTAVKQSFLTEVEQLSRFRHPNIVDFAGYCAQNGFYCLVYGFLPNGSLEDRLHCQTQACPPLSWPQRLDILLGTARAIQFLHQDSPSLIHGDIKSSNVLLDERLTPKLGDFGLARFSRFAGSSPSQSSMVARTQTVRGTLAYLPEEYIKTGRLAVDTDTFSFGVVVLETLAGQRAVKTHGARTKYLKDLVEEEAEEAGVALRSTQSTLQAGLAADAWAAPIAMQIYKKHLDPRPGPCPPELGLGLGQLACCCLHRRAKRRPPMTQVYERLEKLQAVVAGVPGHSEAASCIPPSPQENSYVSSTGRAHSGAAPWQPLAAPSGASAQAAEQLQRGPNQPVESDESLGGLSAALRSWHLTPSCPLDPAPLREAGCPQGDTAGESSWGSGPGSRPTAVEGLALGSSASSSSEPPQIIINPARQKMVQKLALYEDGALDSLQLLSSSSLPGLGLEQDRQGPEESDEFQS

## CC(C)(C)c1ccc(S(=O)(=O)NCc2ccc(C(=O)Nc3cccnc3)cc2)cc1 [Example 38, 4-((4-tert-Butylphenylsulfonamido)methyl)-N-(pyridin-3-yl)benzamide]
MEK1
  MEK1 kinase activity: 99
MSK1
  MSK1 kinase activity: 107
50 different kinases
  decrease in activity of 50 different kinases: no significant decrease
hexokinase
  hexokinase activity in RCC4/VHL: unchanged
TrkA
  TrkA kinase activity: 124
SAPK2a
  SAPK2a kinase activity: 127
mTOR
  mTOR kinase activity: 101
IRAK1
  IRAK1 kinase activity: 105%
IR
  IR kinase activity: 121%
IKKα
  IKKα kinase activity: 102
EphA1
  EphA1 kinase activity: 102
GSK3α
  GSK3α kinase activity: 134
RCC4; Homo sapiens, RCC4, 96 h, XTT assay, four days
  IC50: < 1000 nM
RCC4; four days of treatment, concentration-dependent, FIG. 2A
  number of RCC4 cells compared to RCC4/VHL (XTT metabolic activity): significant decrease in the number of RCC4 cells
DYRK2
  DYRK2 kinase activity: 94%
